{"source": "ChEMBL document CHEMBL1201862", "about": "“PubChem BioAssay data set” (2004)", "key": {"Estrogen receptor beta [1]": {"biological_target": "T1, Estrogen receptor beta (Homo sapiens, UniProt Q92731)", "T1 sequence (Q92731 whole entry)": "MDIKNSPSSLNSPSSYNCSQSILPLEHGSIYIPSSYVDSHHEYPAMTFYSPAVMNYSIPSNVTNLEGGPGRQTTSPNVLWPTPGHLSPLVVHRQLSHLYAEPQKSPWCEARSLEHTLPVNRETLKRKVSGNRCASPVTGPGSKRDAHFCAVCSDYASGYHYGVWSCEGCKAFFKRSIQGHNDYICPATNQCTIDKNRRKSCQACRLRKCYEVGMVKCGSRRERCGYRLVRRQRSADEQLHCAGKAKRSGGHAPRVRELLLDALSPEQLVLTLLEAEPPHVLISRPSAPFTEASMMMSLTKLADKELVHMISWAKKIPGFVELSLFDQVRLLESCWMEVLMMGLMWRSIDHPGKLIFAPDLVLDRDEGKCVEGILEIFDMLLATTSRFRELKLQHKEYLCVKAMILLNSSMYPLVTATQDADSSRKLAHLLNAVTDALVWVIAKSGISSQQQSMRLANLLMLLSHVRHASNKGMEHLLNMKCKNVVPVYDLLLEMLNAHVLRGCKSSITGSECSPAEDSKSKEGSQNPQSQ"}, "Estrogen receptor beta [2]": {"biological_target": "T1, Estrogen receptor beta", "assay": "ERβ–SRC-3 coactivator interaction inhibitors, confirmation, orthogonal assay, biochemical, ELISA, streptavidin-HRP readout (AID 1060)"}, "[3]": {"assay": "inhibitors of firefly luciferase expression or activity, dose response, H4 neuroglioma cells, luminescence (AID 1990)", "format": "functional, cell-based"}, "[4]": {"assay": "luciferase reporter signal reduction – luminescence, H4-C neuroglioblastoma cells, dose response (AID 2458);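 further: H4 neuroglioblastoma cells stably carrying a luciferase reporter gene fusion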", "format": "functional, cell-based"}, "[5]": {"tested_on": "Streptococcus sp. 'group A'", "assay": "growth inhibition of control SK(-) GAS strain, dose response, counter-screen for streptokinase expression inhibitor project, luminescence, kanamycin, BacTiterGlo, confirmation (AID 1900)", "format": "functional, organism-based"}, "cells [6]": {"assay": "cells", "format": "functional, cell-based"}, "[7]": {"assay": "Luminescence Cell-Based Dose Response HTS to Identify Inhibitors of 5'UTR Stem-Loop Driven Prion Protein mRNA Translation in H4 Neuroglioblastoma Cells. [Related pubchem assays: 1827 (Project Summary), 1813 (Primary HTS)]", "format": "functional"}, "[8]": {"assay": "inhibitors of SNCA 5'UTR-driven reporter translation, confirmation, H4 neuroglioma cells, luminescence (AID 1988)", "format": "functional, cell-based"}, "Streptokinase A": {"biological_target": "T2, Streptokinase A (Streptococcus pyogenes serotype M1, UniProt P10520)", "T2 sequence (P10520 whole entry)": "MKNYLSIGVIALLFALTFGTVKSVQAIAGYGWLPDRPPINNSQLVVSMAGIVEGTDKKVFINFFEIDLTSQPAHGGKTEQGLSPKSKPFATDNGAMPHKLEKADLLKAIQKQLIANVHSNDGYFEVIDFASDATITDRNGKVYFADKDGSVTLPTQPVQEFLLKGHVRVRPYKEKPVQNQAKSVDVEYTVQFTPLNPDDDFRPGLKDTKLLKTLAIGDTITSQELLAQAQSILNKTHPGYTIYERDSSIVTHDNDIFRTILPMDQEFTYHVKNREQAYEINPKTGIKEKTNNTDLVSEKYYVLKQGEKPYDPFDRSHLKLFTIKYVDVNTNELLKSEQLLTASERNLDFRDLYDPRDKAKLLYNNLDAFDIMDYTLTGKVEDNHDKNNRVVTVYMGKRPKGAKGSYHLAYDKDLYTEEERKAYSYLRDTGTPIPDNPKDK", "assay": "S. pyogenes streptokinase expression inhibitors, potency, dose response, plasminogen activation absorbance, OD405 (AID 1914);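 further: secreted streptokinase activity via plasminogen activation per viability signal from cell pellet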", "format": "functional, Streptococcus pyogenes M1 GAS"}, "[9]": {"assay": "Luminescence-based dose response cell-based high throughput screening assay for cytotoxic compounds using the IEC-6 intestinal epithelial cell line. [Related pubchem assays: 1858 (Summary AID.), 1825 (Counterscreen.), 1907 (Confirmation screen.)]", "format": "functional"}, "Streptococcus": {"tested_on": "Streptococcus", "assay": "Group A Streptococcus viability loss, dose response, counter-screen for streptokinase expression inhibitor project, luminescence, BacTiterGlo (AID 1915)", "format": "functional, organism-based"}, "[10]": {"assay": "inhibitors of SNCA 5'UTR-driven translation, confirmation, luminescence, H4 neuroglioblastoma cells, dose confirmation (AID 2454);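 further: H4 neuroglioblastoma cells carrying an alpha-synuclein 5'UTR luciferase reporter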", "format": "functional, cell-based"}, "[11]": {"biological_target": "Photoreceptor-specific nuclear receptor (Homo sapiens, UniProt Q9Y5X4)", "sequence (Q9Y5X4 whole entry)": "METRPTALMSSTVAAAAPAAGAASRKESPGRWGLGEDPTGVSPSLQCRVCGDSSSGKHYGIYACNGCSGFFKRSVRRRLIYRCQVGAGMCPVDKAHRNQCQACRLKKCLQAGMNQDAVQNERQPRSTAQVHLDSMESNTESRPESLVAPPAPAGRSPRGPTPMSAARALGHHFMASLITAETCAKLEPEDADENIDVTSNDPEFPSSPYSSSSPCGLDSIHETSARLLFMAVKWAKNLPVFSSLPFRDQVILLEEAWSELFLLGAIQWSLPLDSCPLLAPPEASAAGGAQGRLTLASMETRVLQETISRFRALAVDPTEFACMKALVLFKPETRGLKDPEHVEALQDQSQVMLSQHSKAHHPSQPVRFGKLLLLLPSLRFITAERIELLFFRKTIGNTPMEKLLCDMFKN", "format": "functional, cell-based"}, "Fatty acid synthase [12]": {"biological_target": "T3, Fatty acid synthase (Homo sapiens, UniProt P49327)", "T3 sequence (P49327 whole entry, the tested form may be a part)": "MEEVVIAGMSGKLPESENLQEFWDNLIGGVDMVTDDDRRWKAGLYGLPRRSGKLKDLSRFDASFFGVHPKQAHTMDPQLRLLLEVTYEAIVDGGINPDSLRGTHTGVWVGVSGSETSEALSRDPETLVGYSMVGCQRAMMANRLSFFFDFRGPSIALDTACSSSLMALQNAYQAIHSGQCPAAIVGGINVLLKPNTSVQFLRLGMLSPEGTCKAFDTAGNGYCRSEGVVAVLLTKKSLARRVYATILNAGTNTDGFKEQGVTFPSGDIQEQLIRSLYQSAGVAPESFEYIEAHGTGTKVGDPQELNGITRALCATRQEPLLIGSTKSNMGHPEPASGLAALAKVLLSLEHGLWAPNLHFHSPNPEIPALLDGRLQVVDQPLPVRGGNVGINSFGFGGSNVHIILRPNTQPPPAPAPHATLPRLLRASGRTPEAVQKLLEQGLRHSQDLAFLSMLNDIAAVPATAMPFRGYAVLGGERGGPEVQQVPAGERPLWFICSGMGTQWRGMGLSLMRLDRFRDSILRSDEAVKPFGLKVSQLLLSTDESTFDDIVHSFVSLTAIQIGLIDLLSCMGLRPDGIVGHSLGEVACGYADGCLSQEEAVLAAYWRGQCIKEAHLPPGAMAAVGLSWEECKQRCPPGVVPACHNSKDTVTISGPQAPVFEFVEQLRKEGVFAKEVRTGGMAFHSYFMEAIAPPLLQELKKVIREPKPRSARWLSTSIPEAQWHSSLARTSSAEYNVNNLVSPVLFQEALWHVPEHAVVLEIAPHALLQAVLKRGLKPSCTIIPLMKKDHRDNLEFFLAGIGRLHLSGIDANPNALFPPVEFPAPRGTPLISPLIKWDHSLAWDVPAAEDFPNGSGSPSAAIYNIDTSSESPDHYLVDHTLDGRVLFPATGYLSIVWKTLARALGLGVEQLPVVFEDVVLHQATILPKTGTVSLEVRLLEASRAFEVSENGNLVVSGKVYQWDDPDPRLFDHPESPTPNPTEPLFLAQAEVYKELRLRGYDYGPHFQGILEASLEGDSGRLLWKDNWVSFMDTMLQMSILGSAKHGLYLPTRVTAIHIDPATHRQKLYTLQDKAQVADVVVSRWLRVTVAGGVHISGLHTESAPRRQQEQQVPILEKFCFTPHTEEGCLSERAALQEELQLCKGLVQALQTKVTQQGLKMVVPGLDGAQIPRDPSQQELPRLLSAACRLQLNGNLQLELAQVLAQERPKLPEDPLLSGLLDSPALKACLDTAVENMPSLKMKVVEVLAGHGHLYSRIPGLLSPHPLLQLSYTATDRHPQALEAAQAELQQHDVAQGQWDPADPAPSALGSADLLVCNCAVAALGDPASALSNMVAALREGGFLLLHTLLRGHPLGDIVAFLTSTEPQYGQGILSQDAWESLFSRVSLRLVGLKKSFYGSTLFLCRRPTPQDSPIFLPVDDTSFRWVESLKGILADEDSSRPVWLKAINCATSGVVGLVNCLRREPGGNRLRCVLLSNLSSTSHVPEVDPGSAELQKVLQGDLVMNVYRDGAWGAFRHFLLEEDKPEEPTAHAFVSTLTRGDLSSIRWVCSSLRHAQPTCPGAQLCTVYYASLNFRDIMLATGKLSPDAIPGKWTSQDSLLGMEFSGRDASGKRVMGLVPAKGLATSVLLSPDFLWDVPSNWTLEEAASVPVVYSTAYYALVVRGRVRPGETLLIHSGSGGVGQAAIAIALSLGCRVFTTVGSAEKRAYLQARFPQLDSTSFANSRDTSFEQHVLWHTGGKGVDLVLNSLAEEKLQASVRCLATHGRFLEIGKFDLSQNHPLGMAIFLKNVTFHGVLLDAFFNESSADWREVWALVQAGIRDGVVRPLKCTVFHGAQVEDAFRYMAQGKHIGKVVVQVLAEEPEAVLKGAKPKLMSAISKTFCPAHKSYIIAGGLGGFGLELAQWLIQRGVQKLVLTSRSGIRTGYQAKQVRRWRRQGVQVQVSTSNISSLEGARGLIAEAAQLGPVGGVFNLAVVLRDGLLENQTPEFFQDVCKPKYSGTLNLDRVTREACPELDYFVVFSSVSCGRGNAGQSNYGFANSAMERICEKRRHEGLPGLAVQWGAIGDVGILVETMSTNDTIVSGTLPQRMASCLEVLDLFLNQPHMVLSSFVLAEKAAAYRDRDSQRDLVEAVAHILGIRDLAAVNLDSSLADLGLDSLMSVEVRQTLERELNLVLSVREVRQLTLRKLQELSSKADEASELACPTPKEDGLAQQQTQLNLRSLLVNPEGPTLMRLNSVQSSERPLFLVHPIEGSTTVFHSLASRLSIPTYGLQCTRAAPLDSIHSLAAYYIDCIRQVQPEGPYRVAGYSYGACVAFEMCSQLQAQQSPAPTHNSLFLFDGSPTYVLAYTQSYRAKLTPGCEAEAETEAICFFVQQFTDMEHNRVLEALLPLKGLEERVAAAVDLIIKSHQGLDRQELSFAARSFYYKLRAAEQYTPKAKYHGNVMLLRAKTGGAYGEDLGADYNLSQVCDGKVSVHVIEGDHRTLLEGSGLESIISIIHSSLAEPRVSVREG", "assay": "FAS thioesterase domain inhibitors, dose response, biochemical, endpoint fluorescence intensity, uHTS hits (AID 624327);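 further: fluorescence from hydrolysis of an O-methyl fluorescein acyl ester substrate by the enzyme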", "format": "functional"}, "Fatty acid synthase [13]": {"biological_target": "T3, Fatty acid synthase", "assay": "FAS thioesterase domain inhibitors, dose response, biochemical, kinetic fluorescence intensity (AID 624326);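 further: rate of fluorescence rise from hydrolysis of a fluorogenic O-methyl fluorescein ester substrate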", "format": "functional"}, "Paired box protein Pax-8": {"biological_target": "Paired box protein Pax-8 (Homo sapiens, UniProt Q06710)", "sequence (Q06710 whole entry)": "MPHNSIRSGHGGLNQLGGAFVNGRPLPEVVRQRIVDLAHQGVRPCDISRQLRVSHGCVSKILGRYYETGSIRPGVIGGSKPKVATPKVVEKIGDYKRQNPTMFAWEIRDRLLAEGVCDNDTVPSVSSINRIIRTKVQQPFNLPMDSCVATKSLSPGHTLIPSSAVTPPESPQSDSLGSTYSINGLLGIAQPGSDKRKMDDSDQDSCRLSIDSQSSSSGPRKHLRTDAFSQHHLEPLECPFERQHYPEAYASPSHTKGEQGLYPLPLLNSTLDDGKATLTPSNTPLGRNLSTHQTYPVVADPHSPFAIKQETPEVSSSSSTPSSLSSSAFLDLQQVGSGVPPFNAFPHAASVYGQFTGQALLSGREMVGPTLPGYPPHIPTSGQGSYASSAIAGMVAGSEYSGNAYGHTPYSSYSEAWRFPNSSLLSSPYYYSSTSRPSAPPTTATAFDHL", "assay": "inhibitors of PAX8-driven TPO luciferase reporter, dose response, RMG-I cells, cherry-pick (AID 687027);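 further: luciferase reporter driven by Pax8 target thyroperoxidase promoter measured by SteadyGlo luminescence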", "format": "functional, cell-based"}, "P388/ADR": {"tested_on": "P388/ADR", "assay": "cells", "format": "functional", "conditions": "Mus musculus"}, "SN12K1": {"tested_on": "SN12K1", "assay": "cells", "format": "functional", "conditions": "Homo sapiens"}, "P388": {"tested_on": "P388", "assay": "cells", "format": "functional", "conditions": "Mus musculus"}, "[14]": {"assay": "HeLa 2N DNA content increase, dose response, cell-based, IC50 (AID 1117349)", "format": "functional"}, "[15]": {"assay": "HeLa 4N DNA content increase, dose response, cell-based, IC50 (AID 1117351)", "format": "functional"}, "[16]": {"biological_target": "T4, Carboxy-terminal domain RNA polymerase II polypeptide A small phosphatase 1 (Homo sapiens, UniProt Q9GZU7)", "T4 sequence (Q9GZU7 whole entry)": "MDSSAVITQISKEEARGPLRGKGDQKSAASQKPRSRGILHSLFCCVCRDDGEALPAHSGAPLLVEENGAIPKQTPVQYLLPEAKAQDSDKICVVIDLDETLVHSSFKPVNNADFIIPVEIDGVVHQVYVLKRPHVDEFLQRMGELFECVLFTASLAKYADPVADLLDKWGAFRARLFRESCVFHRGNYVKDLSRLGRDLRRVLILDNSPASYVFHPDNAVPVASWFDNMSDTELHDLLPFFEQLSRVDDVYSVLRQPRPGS", "assay": "inhibitors of CTDSP1, concentration-response testing, biochemical assay, absorbance-based, actives from ultra-high-throughput screening (AID 540297)", "format": "functional"}, "[17]": {"biological_target": "E3 ubiquitin-protein ligase UHRF1 (Homo sapiens, UniProt Q96T88)", "sequence (Q96T88 whole entry, the tested form may be a part)": "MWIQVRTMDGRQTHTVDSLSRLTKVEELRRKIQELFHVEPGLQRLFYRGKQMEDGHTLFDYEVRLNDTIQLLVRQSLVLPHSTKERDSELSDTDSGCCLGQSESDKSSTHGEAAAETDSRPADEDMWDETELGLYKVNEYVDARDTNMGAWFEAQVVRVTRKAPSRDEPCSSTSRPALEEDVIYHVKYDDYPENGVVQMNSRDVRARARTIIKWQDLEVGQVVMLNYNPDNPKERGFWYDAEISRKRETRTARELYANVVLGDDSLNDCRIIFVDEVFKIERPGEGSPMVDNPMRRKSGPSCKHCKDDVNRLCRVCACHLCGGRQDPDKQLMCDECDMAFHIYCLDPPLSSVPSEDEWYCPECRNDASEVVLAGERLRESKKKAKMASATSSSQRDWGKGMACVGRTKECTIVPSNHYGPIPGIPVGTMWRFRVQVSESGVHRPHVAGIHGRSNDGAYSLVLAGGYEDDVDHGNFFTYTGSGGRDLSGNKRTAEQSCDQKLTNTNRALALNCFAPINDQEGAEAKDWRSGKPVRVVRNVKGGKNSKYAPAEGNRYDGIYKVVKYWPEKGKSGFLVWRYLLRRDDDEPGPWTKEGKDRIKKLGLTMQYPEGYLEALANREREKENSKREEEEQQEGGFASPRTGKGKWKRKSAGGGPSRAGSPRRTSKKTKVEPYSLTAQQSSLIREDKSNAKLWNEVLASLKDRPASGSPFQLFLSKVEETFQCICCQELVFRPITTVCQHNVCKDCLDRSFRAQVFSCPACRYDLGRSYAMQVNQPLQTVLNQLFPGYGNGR", "assay": "Counterscreen for inhibitors of 5-meCpG-binding domain protein 2 (MBD2): TRFRET-based biochemical high throughput dose response assay to identify inhibitors of binding of ubiquitin-like with PHD and ring finger domains 1 (UHRF1) to methylated oligonucleotide."}, "[18]": {"assay": "growth suppression of PTEN-null colon cells, dose response, cell-based, HCT116 PTEN knockout (AID 1047);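 further: HCT116 colon tumor cells with PTEN knocked out; cells exposed to compound for 60 hours before readout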", "format": "functional"}, "[19]": {"assay": "growth suppression of beta-catenin-knockout colon cells, dose response, cell-based, HCT116, human colon tumor (AID 1045);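 further: HCT116 colon tumor cells with beta catenin knocked out; cells exposed to compound for 60 hours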", "format": "functional"}, "[20]": {"biological_target": "Induced myeloid leukemia cell differentiation protein Mcl-1 (Homo sapiens, UniProt Q07820)", "sequence (Q07820 whole entry)": "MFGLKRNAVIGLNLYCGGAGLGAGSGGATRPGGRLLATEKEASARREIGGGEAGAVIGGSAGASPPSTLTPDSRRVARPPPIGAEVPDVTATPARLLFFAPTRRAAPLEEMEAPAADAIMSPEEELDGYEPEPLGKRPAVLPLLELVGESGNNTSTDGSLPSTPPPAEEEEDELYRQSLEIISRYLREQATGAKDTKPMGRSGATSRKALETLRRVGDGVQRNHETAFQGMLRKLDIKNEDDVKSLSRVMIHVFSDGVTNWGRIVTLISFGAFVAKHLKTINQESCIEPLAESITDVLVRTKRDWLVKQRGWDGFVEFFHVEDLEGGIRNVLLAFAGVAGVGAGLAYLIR", "format": "functional"}, "Protein Tat": {"biological_target": "T5, Protein Tat (Human immunodeficiency virus type 1 group M subtype B (isolate HXB2)(HIV-1), UniProt P04608)", "T5 sequence (P04608 whole entry)": "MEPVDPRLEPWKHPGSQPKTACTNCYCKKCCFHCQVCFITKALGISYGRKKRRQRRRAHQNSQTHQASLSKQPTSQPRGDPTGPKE", "format": "functional"}, "[21]": {"assay": "Vero cell cytotoxicity, dose response, cytotoxicity control for Vif-APOBEC3G degradation inhibitor project, Vero cells (AID 1117358)", "format": "functional", "conditions": "Human immunodeficiency virus 1, Vero"}, "[22]": {"biological_target": "T6, DNA repair protein RAD52 homolog (Homo sapiens, UniProt P43351)", "T6 sequence (P43351 whole entry)": "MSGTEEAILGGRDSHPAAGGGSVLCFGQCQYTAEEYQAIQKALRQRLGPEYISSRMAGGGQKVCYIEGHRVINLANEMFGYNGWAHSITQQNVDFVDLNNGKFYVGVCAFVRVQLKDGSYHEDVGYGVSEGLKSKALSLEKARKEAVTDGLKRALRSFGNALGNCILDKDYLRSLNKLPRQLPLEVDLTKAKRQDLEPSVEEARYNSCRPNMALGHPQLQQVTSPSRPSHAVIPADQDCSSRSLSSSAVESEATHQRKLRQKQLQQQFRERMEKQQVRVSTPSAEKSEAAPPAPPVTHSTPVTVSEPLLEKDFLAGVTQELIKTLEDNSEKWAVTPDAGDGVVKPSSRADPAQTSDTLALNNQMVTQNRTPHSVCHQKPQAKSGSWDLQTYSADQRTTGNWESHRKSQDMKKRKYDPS", "format": "functional, biochemical"}, "[23]": {"assay": "Luminescence Cell-Based Dose Confirmation HTS to Identify Inhibitors of Polyadenylation.", "format": "functional"}, "cells [24]": {"assay": "cells", "format": "functional"}}, "note": "Activity calls are given as the source filed them.", "data": [{"smiles": "Cc1nn(-c2ccccc2)c(C)c1NC(=O)Cc1cccs1", "values": [{"measurement": "IC50", "setting": "Estrogen receptor beta [1]", "result": "27.1 µM (active)"}, {"measurement": "IC50", "setting": "Estrogen receptor beta [2]", "result": "0.0611 µM (not active)"}]}, {"smiles": "CC(C)N1CCc2c(sc(NC(=O)c3ccc([N+](=O)[O-])o3)c2C(N)=O)C1", "values": [{"measurement": "EC50", "setting": "[3]", "result": "4.38 µM (active)"}, {"measurement": "EC50", "setting": "[4]", "result": "0.3 µM (active)"}, {"measurement": "EC50", "setting": "[5]", "result": "3.19 µM (active)"}, {"measurement": "EC50", "setting": "cells [6]", "result": "0.496 µM (active)"}, {"measurement": "EC50", "setting": "[7]", "result": "< 0.1 µM (active)"}, {"measurement": "EC50", "setting": "[8]", "result": "0.145 µM (active)"}, {"measurement": "EC50", "setting": "Streptokinase A", "result": "> 150 µM (not active)"}, {"measurement": "IC50", "setting": "[9]", "result": "1.32 µM (active)"}, {"measurement": "EC50", "setting": "Streptococcus", "result": "8.99 µM (active)"}, {"measurement": "EC50", "setting": "[10]", "result": "0.953 µM (active)"}, {"measurement": "IC50", "setting": "[11]", "result": "4.58 µM (active)"}, {"measurement": "IC50", "setting": "Fatty acid synthase [12]", "result": "6.27 µM (active)"}, {"measurement": "IC50", "setting": "Fatty acid synthase [13]", "result": "5.65 µM (active)"}, {"measurement": "AC50", "setting": "Paired box protein Pax-8", "result": "1.16 µM (active)"}]}, {"smiles": "O=C(CCBr)N1CCN(C(=O)CCBr)CC1", "note": "[PIPOBROMAN]", "values": [{"measurement": "GI50", "setting": "P388/ADR", "result": "13.2 µM (inactive)"}, {"measurement": "GI50", "setting": "SN12K1", "result": "65.3 µM (inactive)"}, {"measurement": "GI50", "setting": "P388", "result": "14.1 µM (inactive)"}, {"measurement": "IC50", "setting": "[14]", "result": "> 10 µM (inactive)"}, {"measurement": "IC50", "setting": "[15]", "result": "> 10 µM (inactive)"}]}, {"smiles": "NC(=O)c1ccc(N/C=C2/C(=O)NC(=O)N(Cc3ccco3)C2=O)cc1", "values": [{"measurement": "IC50", "setting": "[16]", "result": "3.45 µM (active)"}, {"measurement": "IC50", "setting": "[17]", "result": "31.3 µM (inactive)"}]}, {"smiles": "O=C1NC(=S)N/C1=C/c1ccc(-c2c(Br)cc([N+](=O)[O-])cc2Br)o1", "values": [{"measurement": "EC50", "setting": "[18]", "result": "40.5 µM (active)"}, {"measurement": "EC50", "setting": "[19]", "result": "35.2 µM (active)"}, {"measurement": "IC50", "setting": "[20]", "result": "2.48 µM (active)"}, {"measurement": "IC50", "setting": "Protein Tat", "result": "> 100 µM (active)"}, {"measurement": "CC50", "setting": "[21]", "result": "> 40 µM (active)"}]}, {"smiles": "Cc1cccc(NC(=O)C2CCN(S(=O)(=O)c3c(C)nn(C)c3C)CC2)n1", "values": [{"measurement": "IC50", "setting": "Estrogen receptor beta [1]", "result": "> 50 µM (not active)"}]}, {"smiles": "CN(C)CCNC(=O)c1cccc2[nH]c(-c3ccncc3)nc12", "values": [{"measurement": "AC50", "setting": "[22]", "result": "10 µM (active)"}, {"measurement": "IC50", "setting": "[17]", "result": "10.6 µM (inactive)"}]}, {"smiles": "COc1cccc2cc(-c3nc4ccccc4o3)c(=O)oc12", "values": [{"measurement": "EC50", "setting": "[23]", "result": "> 120 µM (not active)"}, {"measurement": "IC50", "setting": "cells [24]", "result": "14.9 µM (active)"}]}]}
